This is an account of results in patent US20250368628A1, “METHODS AND COMPOUNDS FOR MODULATING INHERITED GENETIC DISEASES” (Design Therapeutics, Inc., priority 2022, published 2025).

Test [1] relates to Myotonic Dystrophy 1 affected patient fibroblasts (Coriel GM04602; 1600 CTG repeats). Briefly: DM1 foci reduction assay (EC50 assay; CAG10-Cy3 FISH, foci per nucleus). In kind it is cell-based. The following applies: Homo sapiens, Fibroblast; DM1 patient fibroblasts, 48 h treatment, foci per nucleus; read-out: DM1 EC50, 48 h. Put shortly: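 Foci per nucleus counted by 20× imaging of 4 areas per well, after overnight FISH with 5 nM CAG10-Cy3 and DAPI staining of fixed, permeabilized cells. DM1 fibroblasts (GM04602, 1600 CTG) were dosed 48 h at 37 °C, 8 points, 3-fold dilutions, 3 μM top concentration.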

The subject of the next test is F35T cells. Briefly: Foci reduction in FECD (CAG10-Cy3 FISH, foci per nucleus). It is filed as cell-based. The following applies: F35T cells, 48 h treatment, foci per nucleus; read-out: FECD EC50, 48 h. As for the experimental part: F35T cells were cultured in media containing Opti-MEM (ThermoFisher) supplemented with 8% FBS, 20 μg/mL ascorbic acid, […] CaCl2, 0.08% chondroitin sulfate, 1×Pen/Strep, 100 μg/mL bovine pituitary extract, 5 ng/mL epidermal growth factor, and 20 ng/mL nerve growth factor. Throughout the culture, cells were maintained in an incubator at 37° C. and 5% CO2. Media was refreshed every 48 hours. Once cells reached adequate confluency, they were harvested and seeded in 96 well plates with a density of 5000 cells per well in 200 μL of the supplemented Opti-MEM media. Cells were returned to the incubator and left to settle for 24 hours at 37° C. and 5% CO2. Cells were then treated in 8-point dose response with compounds or negative controls and incubated for 48 hours at 37° C. and 5% CO2. After treatment, cells were fixed with 4% PFA for 20 minutes at room temperature, followed by permeabilization with 70% ethanol. Cells were incubated at −20° C. for a minimum of 1 hour and maximum of 72 hours, after which the ethanol was removed, and cells were washed with PBS. Cells were rehydrated with 30% formamide and 2×SSC buffer for 10 minutes at room temperature. Cells were then incubated overnight at 37° C. in the hybridization solution containing 30% formamide, 2×SSC, 55 mg/mL dextran sulfate, 2.75 mg/mL bovine serum albumin, 0.2 μg/mL Herring sperm DNA, 1% vanadyl-ribonucleoside complex, and 0.05% 10 μM CAG10-Cy3 probe. Cells were washed twice with 30% formamide in 2×SSC, incubating the cells while shaking with the second wash at 37° C. and 200 rpm for 60 minutes. Cells were stained with 5 mg/mL DAPI 1:1000 in PBS, incubating at room temperature for 5 minutes. Cells were then washed with PBS and sealed with adhesive foil, with each well containing a final volume of 150 μL PBS. Cells were imaged on a Cytation 5 and analyzed on a foci per nucleus basis.

The term EC50 denotes the midpoint of the concentration-response curve. On to `CCCCCNC(=O)CCNC(=O)c1nc(NC(=O)c2cc(NC(=O)CCNC(=O)c3nc(NC(=O)CCCNC(=O)c4cc(NC(=O)c5nc(NC(=O)CCNC(=O)c6cc(NC(=O)c7nccn7C)cn6C)cn5C)cn4C)cn3C)cn2C)cn1C` [Compound B-39], for which the EC50 (in test [1]; with F35T cells) was below 0.1 µM in each case.

For `CCCNC(=O)c1nc(NC(=O)c2cc(NC(=O)CCNC(=O)c3nc(NC(=O)CCCNC(=O)c4cc(NC(=O)c5nc(NC(=O)CCNC(=O)c6cc(NC(=O)c7nc(N=C(N)N)cn7C)cn6C)cn5C)cn4C)cn3C)cn2C)cn1C` [Compound B-328], the EC50 (in test [1]; with F35T cells) was 0.1 to 0.5 µM in each case.

Regarding `Cn1cc(NC(=O)c2nc(NC(=O)CCNC(=O)c3cc(NC(=O)c4nccn4C)cn3C)cn2C)cc1C(=O)NCCCC(=O)Nc1cn(C)c(C(=O)NCCC(=O)Nc2cc(C(=O)Nc3cn(C)c(C(=O)NCCC(=O)N[C@@H](CCCNC(=N)N)C(=O)N[C@@H](CCCNC(=N)N)C(=O)N[C@@H](CCCNC(=N)N)C(=O)N[C@@H](CCCNC(=N)N)C(=O)NCCCCN=[N+]=[N-])n3)n(C)c2)n1` [Compound B-151], the results for the EC50 (in test [1]; in the test with F35T cells) were above 1 µM and 0.1 to 0.5 µM, respectively.

Consider `Cn1cc(NC(=O)c2nc(NC(=O)CCNC(=O)c3cc(NC(=O)c4nccn4C)cn3C)cn2C)cc1C(=O)NCCCC(=O)Nc1cn(C)c(C(=O)NCCC(=O)Nc2cc(C(=O)Nc3cn(C)c(C(=O)NCCC(=O)NCCOCCOc4ccc(N)cc4)n3)n(C)c2)n1` [Compound B-16], for which the EC50 (in test [1]; in the test with F35T cells) was 0.1 to 0.5 µM each time.

In the case of `Cn1cc(NC(=O)c2nc(NC(=O)CCNC(=O)c3cc(NC(=O)c4nccn4C)cn3C)cn2C)cc1C(=O)NCCCC(=O)Nc1cn(C)c(C(=O)NCCC(=O)Nc2cc(C(=O)Nc3cn(C)c(C(=O)NCCC(=O)OCC(N)(CO)CO)n3)n(C)c2)n1` [Compound B-73], the half-maximal effective concentration (EC50) in test [1] was 0.5 to 1 µM; in the test on F35T cells it was above 1 µM.

For `COC(=O)CCCN(CCCC(=O)OC)Cc1ncc(C2CN(C(=O)CCNC(=O)c3nc(NC(=O)c4cc(NC(=O)CCNC(=O)c5nc(NC(=O)CCCNC(=O)c6cc(NC(=O)c7nc(NC(=O)CCNC(=O)c8cc(NC(=O)c9nccn9C)cn8C)cn7C)cn6C)cn5C)cn4C)cn3C)C2)[nH]1` [Compound B-369], the EC50 in test [1] was above 1 µM; with F35T cells, 0.1 to 0.5 µM.

`Cn1cc(NC(=O)c2nccn2C)cc1C(=O)NCCC(=O)Nc1cn(C)c(C(=O)Nc2cc(C(=O)NCCCC(=O)Nc3cn(C)c(C(=O)NCCC(=O)Nc4cc(C(=O)Nc5cn(C)c(C(=O)NCCC(=O)N6CCC(C#CC#CC7CCNCC7)CC6)n5)n(C)c4)n3)n(CCCCCCN)c2)n1` [Compound B-256]: the EC50 (in test [1]; in the test on F35T cells) was 0.1 to 0.5 µM throughout.

On to `Cn1cc(NC(=O)c2nc(NC(=O)CCNC(=O)c3cc(NC(=O)c4nccn4C)cn3C)cn2C)cc1C(=O)NCCCC(=O)Nc1cn(C)c(C(=O)NCCC(=O)Nc2cc(C(=O)Nc3cn(C)c(C(=O)NCCCN=C(N)N)n3)n(C)c2)n1` [Compound B-205], for which the EC50 (in test [1]; with F35T cells) was below 0.1 µM each time.

For `CN(CCCNC(=O)c1cccc(C(=O)O)c1)CCCNC(=O)c1nc(NC(=O)c2cc(NC(=O)CCNC(=O)c3nc(NC(=O)CCCNC(=O)c4cc(NC(=O)c5nc(NC(=O)CCNC(=O)c6cc(NC(=O)c7nccn7C)cn6C)cn5C)cn4CCCCCCN=[N+]=[N-])cn3C)cn2C)cn1C` [Compound B-233], the EC50 (in test [1]; in the test on F35T cells) was 0.1 to 0.5 µM throughout.

As for `Cn1cc(NC(=O)c2nc(NC(=O)CCNC(=O)c3cc(NC(=O)c4nccn4C)cn3C)cn2C)cc1C(=O)NCCCC(=O)Nc1cn(C)c(C(=O)NCCC(=O)Nc2cc(C(=O)Nc3cn(C)c(C(=O)NCCC(=O)N4CCOCC4)n3)n(C)c2)n1` [Compound B-48], the EC50 (in test [1]; in the test with F35T cells) was 0.1 to 0.5 µM in each case.

As to `Cn1cc(NC(=O)c2nc(NC(=O)CCNC(=O)c3cc(NC(=O)c4nccn4C)cn3C)cn2C)cc1C(=O)NCCCC(=O)Nc1cn(C)c(C(=O)NCCC(=O)Nc2cc(C(=O)Nc3cn(C)c(C(=O)NCCC(=O)NCCOCCOCCOCCN4CCC(C#CC#CC5CCN(C(=O)c6ccc(C(C)(C)C)cc6)CC5)CC4)n3)n(C)c2)n1` [Compound B-175], the EC50 (in test [1]; in the test with F35T cells) was 0.1 to 0.5 µM in each case.
